The subject of assay [1] is human corneal fibroblasts (HCF). The experiment in a line: Timing course analysis of SDF1/CXCR4 and BMP signaling in HCF. In kind it is cell-based. The conditions noted are these: time course.
The test system is the same in assay [2]. The experiment in a line: Reversal of HCF to keratocytes on immobilized HC-HA/PTX3 with or without SB431542 or AMD3100. The assay is classed as cell-based. The conditions noted are these: day 1 up to 7 days. The method, then:
A total of 86 human corneas from individuals aged 18-76 years and maintained at 4° C. in Optisol (Chiron Vision, Irvine, Calif.) for less than 7 days after death were obtained from the Florida Lions Eye Bank (Miami, Fla.) and handled according to the declaration of Helsinki. HCF were isolated and cultured. Briefly, the sheets of the epithelium and the endothelium were removed from corneas, the stroma sections were cut into cubes of approximately 1 mm3, incubated in 2 mg/ml collagenase for 16 h at 37° C., and then placed in a culture medium consisting of DMEM supplemented with 10% fetal bovine serum containing […]. The culture medium was refreshed twice a week. The cells cultured to passage 3 were used for all experiments. To reverse fibroblasts or myofibroblasts into keratocytes, fibroblasts or myofibroblasts were cultured on immobilized HC-HA/PTX3 in DMEM+10% FBS for 3 days using the samples from the cells on plastic and HA as the controls. Some of the cell cultures were extended to up to 7 days of culture to monitor the expression of α-SMA formation. Total RNAs were extracted using RNeasy Mini Kit (Qiagen) and reverse-transcribed using High Capacity Reverse Transcription Kit (Applied Biosystems). cDNA was amplified by real-time RT-PCR using specific primer-probe mixtures and DNA polymerase in Quant Studio 5 Real-time PCR System (Applied Biosystems). Real-time RT-PCR profile consisted of 10 min of initial activation at 95° C., followed by 40 cycles of 15 s denaturation at 95° C., and 1 min annealing and extension at 60° C. The genuine identity of each PCR product was confirmed by the size determination using 2% agarose gels followed by ethidium bromide staining together with PCR marker according to EC3 Imaging System (BioImaging System, Upland, Calif.). The samples of human corneal fibroblasts, myofibroblasts and corneal keratocytes were air-dried and fixed in 4% formaldehyde, pH 7.0, for 15 min at room temperature, rehydrated in PBS, incubated with 0.2% Triton X-100 for 15 min, and rinsed 3 times with PBS for 5 min each. […] After three washes with PBS, they were incubated with corresponding Alexa-Fluor-conjugated secondary IgG (all 1:100 dilution) for 60 min. The samples were then counterstained with Hoechst 33342 and analyzed in Zeiss LSM 700 confocal microscope (Thornhood, N.Y.). Corresponding mouse and rabbit sera were used as negative controls for primary monoclonal and polyclonal antibodies, respectively. Cell lysates were prepared in RIPA buffer and resolved on 4-15% (w/v) gradient acrylamide gels under denaturing and reducing conditions for Western blotting. The protein extracts were transferred to the nitrocellulose membrane, which was then blocked with 5% (w/v) fat-free milk in TBST [50 mM Tris-HCl, pH 7.5, 150 mM NaCl, 0.05% (v/v) Tween-20], followed by sequential incubation with the specific primary antibody against keratocan and its respective horseradish peroxidase (HRP)-conjugated secondary antibody using β-actin as the loading control. Immunoreactive proteins were detected with Western Lighting Chemiluminescence (PerkinElmer, Waltham, Mass.).

Take hyaluronic acid [HA]: in assay [1], the “time of promoted CXCR4 mRNA expression” value was “not HA” and the “time to aggregation in HCF” value was “not HA”. For the same substance, the “aggregation of HCF” value in assay [2] was “formed some aggregates”.

The record behind these values is patent publication US20210386791A1, “METHODS OF CELLULAR REPROGRAMMING” (TissueTech, Inc., priority 2018, published 2021).
